This note sets out measurements from patent publication US12611456B2, “Use of thiazole amide compounds for modulating human immune response” (Children's Medical Center Corporation, priority 2019, dated 2026).

Structures are written as SMILES. “Also recorded” adds a separate entry of the source.

Data set [1] deals with NF-κB. Kind of data set: THP1-NF-κB reporter cell line, luminescence. Format: cell-based, human. The following applies: THP1-NF-κB cells, 100 to 0.02 μM. The source says:
(§1) The THP1-NF-κB Lucia, THP1-dual NF-κB/IRF parent cell line, knocked out for MyD88 (THP1-AMyD88), TBK1 (THP1-ΔTBK1), IRF3 (THP1-AIRF3), cGAS (THP1-AcGAS), STING (THP1-ASTING), or expressing murine STING were obtained from Invivogen (San Diego, CA). THP1-derived cell lines are human monocytic cells derived from the blood of a child with leukemia and contain NF-κB- and IRF-inducible reporter construct to allow colorimetric- or luminescence-based assessment of NF-κB and IRF activities. THP1 cells were cultured in RPMI 1640 supplemented with 10% non-heat inactivated fetal bovine serum (FBS), 10 mM HEPES, 1.0 mM sodium pyruvate, 50 ug/ml Pen-Strep, and 100 ug/mL Normocin™. Once cultured, the cells were stored in a 37° C. incubator with 5% CO2 and a humidified atmosphere. Cells were passaged every 2-3 days and not allowed to exceed a concentration of 2.0×10^6 cells/ml media.
THP1-NF-κB cells between passage 15 and 18 and suspended in culture medium were dispensed into 384-well black clear-bottom plates (Corning 3712) at 30,000 cells/30 μl/well using a Combi liquid dispenser. To allow comparison to a benchmark small molecule with known immune stimulating activity, cells at the same concentration were stimulated with 50 μM R848, a TLR7/8 agonist, in 0.3% DMSO and added to every other well of column 24, which was left empty of cells, by multichannel pipette at the same volume. Five μl of 700 nM Phorbol myristate acetate (PMA) in THP1 culture media and 2.3% DMSO, a known peripheral blood cell mitogen, was added to every other well of column 23 by multichannel pipette (final concentration in well: 100 nM in 0.3% DMSO). Five μl of THP1 culture media with 2.3% DMSO was added to the remaining wells of column 23 by multichannel pipette (final concentration 0.3% DMSO). One hundred nl aliquots of library compounds diluted in 100% DMSO were transferred from their original 384-well plates to the assay plates using a Seiko pin transfer machine. Each library plate was pinned in duplicate, yielding two assay plates with identical conditions for comparison. Plates were then incubated for 24 hours at 37 C with 5% CO2 in humid conditions. Following incubation, 10 μL of supernatant was removed from each well and transferred to a white plate (Corning 3570) using a Vprep liquid transfer machine. 10 μL of recombinant Lucia protein (Invivogen) diluted 1:2000 in THP1 culture media was added to empty well 24P. Using a Combi liquid dispenser, 50 μL/well of Quanti-Luc substrate (Invivogen) diluted 1:3 in sterile water was added to the assay plate. Immediately after adding the substrate, the luminescence was read using a PerkinElmer Envision plate reader. This assay was adapted to a 96 well format to confirm and expand the HTS results.

The subject of data set [2] is IRF. As to the kind of experiment: THP1-ISG reporter cell line, luminescence. Format: cell-based, human. As to conditions: THP1-ISG cells, 100 to 0.02 μM. The source says:
High throughput screen (HTS) overview: To identify small molecule immunomodulators/adjuvants that robustly activate human immune cells, ˜200,000 small molecules were screened and tested against THP1 cells. The chemical libraries screened included known bioactive and commercial libraries from various sources including commercial libraries such as ChemDiv, ChemBridge, and Asinex. All libraries were owned and provided by the Institute of Chemistry and Cell Biology (ICCB)—Longwood (Harvard Medical School). The project primary screen incorporated two distinct arms: a) a luciferase-based screen which corresponds to the relative activation of the human NFκB Reporter gene; and b) a fluorescence-based screen, corresponding to the phenotypic adherence, a distinct marker of cell activation, of the THP1 cells. In a secondary luciferase-based screen IRF-inducing activities of selected hits using a THP1-ISG reporter cell line were evaluated. Here, discovery of a thiazole amide small molecule family with both NFκB/IRF-inducing and leukocyte adherence-inducing activities towards human leukocytes was observed.
Briefly, THP1-dual NF-κB/IRF parent and derived cell lines were resuspended at a concentration of 10^5 cells/200 μl of THP1 culture medium and transferred to a 96-well plate pre-loaded with compounds dissolved in DMSO. In selected experiments, THP1 cells were also stimulated with TNF and IFNβ as controls for NF-κB and IRF activities, respectively. After 22-24 hours of incubation (37° C., 5% CO2), plates were spun down (500×g, room temperature, 5 minutes) and supernatants were harvested to assess NF-κB and IRF activities by measuring the levels of SEAP and Lucia luciferase with Quanti-Blue and Quanti-Luc, respectively.

Data set [3] concerns C57BL/6 mice. Kind of data set: Influenza rHA immunization of mice, anti-rHA IgG by ELISA. The following applies: rHA + compound vs rHA alone; for adjuvant activity: anti-rHA IgG titers: prime Day 0, boost Day 28, serum Day 28 and Day 42, i.m., 100 nmol. (ELISA stands for enzyme-linked immunosorbent assay.)
Experimental: C57BL/6 mice were obtained from Charles River Laboratories and housed in specific pathogen-free conditions in the animal research facilities at Boston Children's Hospital.
For immunization experiments, adult mice were immunized intramuscularly (i.m.) in the right posterior thigh with 50 μl of vaccine containing 0.33 μg of each of the following recombinant influenza virus hemagglutinins (rHA): A/Michigan/45/2015 (H1N1), A/Hong Kong/4801/2014 (H3N2), and B/Brisbane/60/2008, contained in the 2016-2017 formulation of the FluBlok vaccine (Protein Sciences Corp.). Mice were immunized with a prime-boost schedule (two injections four weeks apart). Vaccine in all experimental groups was formulated with 10% (v/v) DMSO and 5% (v/v) Tween-80. As indicated for specific experimental groups, vaccine was also formulated with compound 057 (100 nmol, final DMSO concentration 10%). Serum was collected 28 days post-prime (pre-boost blood sample) and 14 days post-boost for antibody detection. rHA-specific IgG were quantified by ELISA. High binding flat bottom 96-well plates (Corning Life Sciences) were coated with 1 μg/ml rHA in carbonate buffer pH 9.6, incubated overnight at 4° C. and blocked with PBS+BSA 1% (Sigma-Aldrich) for 1 h at room temperature (RT). Then, sera from vaccinated mice were added with an initial dilution of 1:100 and 1:4 serial dilutions in PBS+BSA 1% and incubated for 2 hrs at RT. Plates were then washed and incubated for 1 hr at RT with HRP-conjugated anti-mouse IgG (Southern Biotech). At the end of the incubation plates were washed again and developed with tetramethylbenzidine (BD Biosciences) for 5 minutes, then stopped with 1 N H2SO4. The optical density was read at 450 nm Versamax microplate reader with SoftMax Pro Version 5 (both from Molecular Devices) and endpoint titers were calculated using as cutoff three times the optical density of the background.
For data set [4], the system named is THP1-NF-κB cells. As to the kind of experiment: Expression of co-stimulatory molecules CD80 and CD86 by flow cytometry. Format: cell-based, human. The following applies: 33 μM. How it is done:
(§2) Following incubation and supernatant transfer described above, each black assay plate was manually washed. First, remaining suspension cells were expelled into a bath of 15% bleach by shaking the plate upside down. The plate was then submerged in a 7 L bath of 1×PBS. Once submerged, each plate was shaken vigorously side-to-side to release any air bubbles forming in the wells. The plate was then removed and shaken into the bleach bath once again. This process was repeated 3 times per plate. 30 μL/well of a mix of 2 μg/mL Hoechst 33342 in PBS with 1% Para-formaldehyde was added using a Combi liquid dispenser to the washed assay plates. Plates were left in the dark to stain and fix for 20 minutes. Washed and stained assay plates were then loaded onto an Acumen laser scanning cytometer. Total fluorescence area and number of objects (nuclei) were measured using the instrument for each well. This assay was adapted to a 96 well format to confirm and expand the HTS results. […] After 24 hours of incubation (37° C., 5% CO2), plates were washed with PBS to determine the number of adherent cells Alternatively, plates were spun down (500×g, room temperature, 5 minutes) and cells were harvested for staining with fluorescent Annexin V or antibodies against co-stimulatory markers CD80 and CD86 (Biolegend) according to the manufacturer's protocols and analyzed by flow cytometry (BD LSRFortessa).

For data set [5], the system named is NF-κB. As to the kind of experiment: NF-κB activity in THP1-dual NF-κB/IRF reporter cells. The format is cell-based, human. As to conditions: 22-24 hr, 100, 25, 6.25 and 1.56 μM, fold over DMSO.
From the text: as §1
(§3) Briefly, THP1-dual NF-κB/IRF parent and derived cell lines were resuspended at a concentration of 10^5 cells/200 μl of THP1 culture medium and transferred to a 96-well plate pre-loaded with compounds dissolved in DMSO. In selected experiments, THP1 cells were also stimulated with TNF and IFNβ as controls for NF-κB and IRF activities, respectively. […]

Data set [6] has as its system THP1-NF-κB cells. Kind of data set: Annexin V staining for apoptotic cells. The format is cell-based, human. As to conditions: 33 μM. How it is done: as §2
In data set [7] the target is T1, murine STING (Mus musculus, UniProt Q3TBT3).
T1 construct: host or cells: THP1-dual NF-κB/IRF reporter cells (human monocytic line) expressing murine STING
T1 sequence (Q3TBT3 1-378): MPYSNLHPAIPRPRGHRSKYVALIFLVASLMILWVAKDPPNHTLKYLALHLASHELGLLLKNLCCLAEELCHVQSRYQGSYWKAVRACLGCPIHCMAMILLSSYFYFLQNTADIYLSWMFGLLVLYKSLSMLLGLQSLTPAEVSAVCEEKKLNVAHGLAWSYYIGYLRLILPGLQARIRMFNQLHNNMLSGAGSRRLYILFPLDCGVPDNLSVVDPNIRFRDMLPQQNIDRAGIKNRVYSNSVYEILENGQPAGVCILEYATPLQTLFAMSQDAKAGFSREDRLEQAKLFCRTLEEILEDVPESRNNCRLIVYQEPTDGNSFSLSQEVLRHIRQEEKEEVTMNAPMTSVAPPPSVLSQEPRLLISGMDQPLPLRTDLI
Kind of data set: NF-κB and IRF activities in THP1-dual reporter cells expressing murine STING. The following applies: 25 μM, 22-24 hr, fold over DMSO. The format is cell-based.
From the text: as §1, §3

Data set [8] has as its system IRF. Kind of data set: IRF activity in THP1-dual NF-κB/IRF reporter cells. The format is cell-based, human. As to conditions: 22-24 hr, 100, 25, 6.25 and 1.56 μM, fold over DMSO.
From the text: as §1, §3

In data set [9] the test system is THP1-NF-κB cells. As to the kind of experiment: THP1 cell adherence assay. Format: cell-based, human. As to conditions: 33 μM, PMA and R848 positive controls. How it is done:
as §2

For data set [10], the system named is MyD88. Kind of data set: NF-κB and IRF activities in THP1 cells knocked out for MyD88, TBK1 or IRF3. The format is cell-based, human. The following applies: 25 μM, 22-24 hr, knockout vs parent THP1 cells.
From the text: as §1, §3

Data set [11] has as its system STING. As to the kind of experiment: NF-κB and IRF activities in THP1 cells knocked out for cGAS or STING. The format is cell-based, human. As to conditions: 25 μM, 22-24 hr, knockout vs parent THP1 cells.
From the text: as §1, §3

With `COc1ccc(C(=O)Nc2nc(CC(=O)Nc3nc4ccccc4s3)cs2)cc1OC` [Compound 57.3], the figures for the “NFκB-inducing activity (RLU)” value in data set [1] and in data set [1] (listed as 057.3) were “comparable to or greater than the parent molecule 057” and “concentration-dependent activity”, respectively. For the same compound, the “IRF-inducing activity (RLU)” value was “comparable to or greater than the parent molecule 057” in data set [2] and “concentration-dependent activity” in [2] (listed as 057.3).
Regarding `CCOc1ccc2nc(NC(=O)Cc3csc(NC(=O)c4cc(OC)cc(OC)c4)n3)sc2c1` [Compound 057], the “adjuvant activity: anti-rHA IgG titers” value was “exerts adjuvant activity in vivo; also recorded: substantially higher antibody titers; also recorded: demonstrates in vivo adjuvanticity in mice” in [3] and “demonstrates in vivo adjuvanticity in mice” in data set [3] (listed as PVP-057). Moreover, the “adjuvant activity: rHA-specific IgG titers” value in data set [3] (single i.m. injection Day 0, serum Day 14) is “exerts adjuvant activity in vivo; also recorded: substantially higher antibody titers”. Moreover, the “expression of co-stimulatory molecules CD80 and CD86 (MFI)” value in [4] is on record as “induces the expression co-stimulatory molecules; also recorded: elicited the expression of surface co-stimulatory molecules; also recorded: elicits”. In addition, the NF-κB activity result in data set [5] was “dose-dependent response; also recorded: elicited both NFκB and IRF activities; also recorded: elicits”. The “apoptosis (Annexin V+ cells)” value in data set [6] is recorded as “does not induce apoptosis; also recorded: without inducing cellular apoptosis”. Also, in data set [1], the “NFκB-inducing activity (RLU)” value was “concentration-dependent activity; also recorded: robustly induces both NFκB and IRF activities”. Further, in data set [7], the “activation of murine STING (NF-κB and IRF activities)” value is recorded as “activates murine STING; also recorded: activated THP1 cells expressing murine STING”. Moreover, in data set [2], the “IRF-inducing activity (RLU)” value was “concentration-dependent activity; also recorded: robustly induces both NFκB and IRF activities”. For the same compound, the IRF activity result in data set [8] is “dose-dependent response; also recorded: elicited both NFκB and IRF activities; also recorded: elicits”. Also, the “cell adherence (number of adherent cells)” value in data set [9] was “induces cell adherence; also recorded: elicits human leukocyte adherence”. Moreover, in data set [10], the “dependence of NF-κB and IRF activities on MyD88” value is “MyD88-independent”. Further, the “dependence of NF-κB and IRF activities on STING” value in [11] was “STING-dependent”.
Regarding `COc1ccc(C(=O)Nc2nc(CC(=O)Nc3nc4ccc(S(C)(=O)=O)cc4s3)cs2)cc1` [Compound 57.2], the “NFκB-inducing activity (RLU)” value is on record as “comparable to or greater than the parent molecule 057” in [1] and “concentration-dependent activity” in data set [1] (listed as 057.2). Further, the “IRF-inducing activity (RLU)” value is on record as “comparable to or greater than the parent molecule 057” in [2] and “concentration-dependent activity” in data set [2] (listed as 057.2).
